{"source": "patent US12521415B2", "about": "“Accelerating repair of mucosal injury using gold(III) compounds” (University of Kentucky Research Foundation, priority 2020, dated 2026)", "key": {"[1]": {"test": "Stability of AuPhos in PBS and DMEM", "format": "physicochemical", "text": "(§1) FIGS. 8A-8J present properties of AuPhos. FIG. 8A includes a chemical structure of AuPhos. FIG. 8B includes extrapolated AuPhos-induced OCR (complex I) in liver mitochondria. […] FIG. 8E provides weight change in AuPhos-treated mice over time. FIG. 8F presents stability of AuPhos in PBS and DMEM. FIG. 8G presents stability of AuPhos in PBS and DMEM. FIG. 8H includes an AuPhos-induced Heat map of DEG (left Panel), obtained using log 2(Fold Change) and p-Value <0.00001 thresholds in MDA-MB-231(107) cells (n=2), and the top six hits of KEGG analysis (right panel). FIG. 8I presents biodistribution and pharmacokinetics of AuPhos in different tissues; Colon, Small bowel, Lung, Kidney, Spleen, Liver, Heart and Blood after single dose (oral, 25 mg/kg) administration of AuPhos at 6 h, 12 h and 24 h. FIG. 8J presents biodistribution and pharmacokinetics of AuPhos in different tissues stool after single dose (oral, 25 mg/kg) administration of AuPhos at 6 h, 12 h and 24 h.\nThis observation was mitochondrial complex I-driven when different substrates, i.e. pyruvate and succinate, were used to measure the OCR. Transcriptomics was used to study global changes in mRNA in response to a 12 h exposure of AuPhos to MDA-MB-231 cells (FIG. 8H)."}, "[2]": {"tested_on": "TNF-stimulated colonic NCM460 cells", "test": "Western blot of TNF-stimulated NCM460 cells treated with AuPhos (mitochondrial biogenesis, PI3K markers)", "format": "cell-based, human", "conditions": "WB", "method": "(§2) FIG. 14A Normal human colonic biopsies were incubated a^t 4° C. with AuPhos×3 hrs and membrane fractions examined for mitochondrial complexes expression by WB. FIG. 14B TNF-stimulated colonic NCM460 cells were treated overnight with AuPhos at concentrations indicated. WB for markers indicated are shown in nuclear and membranous protein fractions. FIG. 14C Markers of PI3K pathway were probed in nuclear and cytosolic fractions of AuPhos-treated NCM460 cells (treated with TNF). FIG. 14D NCM460 cell were treated overnight with TNF and probed for the ROS-induced P-PTEN, which inactivates PTEN and activates PI3K.\nThe effects of AuPhos in Px-accelerated IL-10KO mice by beginning treatment on D21 (7D after cessation of Px) when colitis is severe is shown in FIG. 13A. AuPhos-induced mitochondrial biogenesis and PI3K signaling. To examine the effect of AuPhos on mitochondrial biogenesis in human colonic IEC, fresh biopsies were cultured with a dose range of AuPhos and examined (after 3 h) for mitochondrial complex levels. […] Lastly, TNF stimulates p-PTEN in NCM460 cells indicative of ROS-induced PTEN inactivation as published. It is likely that induction of mtROS by AuPhos enhances PI3K signaling which promotes mitochondrial biogenesis (PGC1α and TFAM) as well as cooperate with Wnt to enhance β-catenin signaling in fissioning crypts."}, "[3]": {"tested_on": "normal human colonic biopsies", "test": "Western blot of human colonic biopsies incubated with AuPhos", "format": "cell-based", "method": "as §2\nControl or DSS colitis mice were gavaged with vehicle (−) or AuPhos (+) (as in FIG. 2) and sacrificed on D14. WB of isolated IEC proteins indicated are shown in nuclear and membranous protein fractions along with densitometry. (#mice=4 for each condition). *p<0.04. FIG. 16E. Normal human colonic biopsies were incubated at 4° C. with AuPhos×3 hrs. Membranous and nuclear fractions examined for indicated proteins by WB.\nThe effects of AuPhos in Px-accelerated IL-10KO mice by beginning treatment on D21 (7D after cessation of Px) when colitis is severe is shown in FIG. 13A. AuPhos-induced mitochondrial biogenesis and PI3K signaling. […]"}, "[4]": {"tested_on": "breast cancer (MDA-MB-231)", "test": "Mitochondrial uptake of AuPhos by gold content (graphite furnace atomic absorption spectroscopy) in MDA-MB-231", "format": "cell-based", "conditions": "cancerous epithelial cells (MDA-MB-231)", "text": "as §1\nChanging the geometry and stabilizing ligands of gold compounds, such as the use of bidentate frameworks, promote different mitochondrial effects."}}}
{"smiles": "[Cl][Au]1([c]2ccccc2Cc2ccccn2)[P](c2ccccc2)(c2ccccc2)c2ccccc2[P]1(c1ccccc1)c1ccccc1", "note": "[AuPhos]", "values": [{"measurement": "solution stability", "setting": "[1]", "value": "excellent solution stability"}, {"measurement": "markers of PI3K [pAkt and pS6 kinase (pS6)]", "setting": "[2]; NCM460 cells treated with TNF", "value": "induced markers of PI3K"}, {"measurement": "PGC1a and TFAM protein", "setting": "[2]; NCM460 cells, TNF-stimulated, overnight AuPhos", "value": "induces PGC1a and TFAM"}, {"measurement": "nuclear pp-catenin5", "setting": "[2]; NCM460 cells", "value": "induction of nuclear pp-catenin5"}, {"measurement": "mitochondrial complex levels", "setting": "[3]; fresh human biopsies, dose range of AuPhos, after 3 h, WB", "value": "rapid increased in complexes"}, {"measurement": "mitochondrial complex levels and downstream signaling", "setting": "[3]; human biopsies, 4° C., AuPhos x3 hrs, WB (FIG. 16E)", "value": "increases mitochondrial complex levels and downstream signaling"}, {"measurement": "mitochondrial localization (gold content)", "setting": "[4]", "value": "localizes in the mitochondria"}]}
